From the supplement of paper PMC10307832

Columns and labels:
Assay in all cases: relative viability (nuclei count vs DMSO), 5 days (fraction); higher = more cells survive
[1] = compound: CC1=CC(=C(N1C2=CC=C(C=C2)Cl)C)C(=O)CN3CCCCC3 [IU1-47] + Cc1cc(Nc2cc(N3CCN(C)CC3)nc(Sc3ccc(NC(=O)C4CC4)cc3)n2)n[nH]1 [Tozasertib] (partner 0.1 µM)
In short: (§1)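 Lung cancer cell lines, seeded in 1536-well plates, were treated the following day by pin tool with a single drug or with five library-drug doses (not always all listed) in √10 steps on top of a fixed anchor-drug dose. Cells were fixed and nuclei stained in one step after 5 days, and nuclei were counted. Relative viability is the nuclei count for treated wells divided by that for vehicle wells, reported as medians of duplicate plates.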

[2] = compound: CC1=CC(=C(N1C2=CC=C(C=C2)Cl)C)C(=O)CN3CCCCC3 [IU1-47] + N=C(N)NC(=N)NCCc1ccccc1 [Phenformin] (partner 250 µM)
In short: as §1

[3] = compound: Cc1nc(C(=O)NCC(=O)O)c(O)c2ccc(Oc3ccccc3)cc12 [FG-4592] + CC(C)C[C@H](NC(=O)[C@H](Cc1ccccc1)NC(=O)c1cnccn1)B(O)O [Bortezomib] (partner 0.002 µM)
In short: as §1

[4] = compound: Cc1nc(C(=O)NCC(=O)O)c(O)c2ccc(Oc3ccccc3)cc12 [FG-4592] + CS(=O)(=O)CCNCc1ccc(-c2ccc3ncnc(Nc4ccc(OCc5cccc(F)c5)c(Cl)c4)c3c2)o1 [Lapatinib] (partner 2 µM)
In short: as §1

Cell Line	relative viability ([1]; first compound 0.08 µM)	relative viability ([1]; first compound 0.253 µM)	relative viability ([1]; first compound 0.8 µM)	relative viability ([1]; first compound 2.53 µM)	relative viability ([1]; first compound 8 µM)	relative viability ([2]; first compound 0.08 µM)	relative viability ([2]; first compound 0.253 µM)	relative viability ([2]; first compound 0.8 µM)	relative viability ([2]; first compound 2.53 µM)	relative viability ([2]; first compound 8 µM)	relative viability ([3]; first compound 0.08 µM)	relative viability ([3]; first compound 0.253 µM)	relative viability ([3]; first compound 0.8 µM)	relative viability ([3]; first compound 2.53 µM)	relative viability ([3]; first compound 8 µM)	relative viability ([4]; first compound 0.08 µM)	relative viability ([4]; first compound 0.253 µM)	relative viability ([4]; first compound 0.8 µM)	relative viability ([4]; first compound 2.53 µM)	relative viability ([4]; first compound 8 µM)
HCC-44	1.13	1.16	0.968	0.995	1.22	0.167	0.183	0.143	0.221	0.183	0.817	0.894	0.946	0.921	0.889	0.99	0.948	0.835	0.96	0.96
HCC-78	0.37	0.508	0.479	0.372	0.404	0.679	0.691	0.671	0.671	0.617	0.558	0.51	0.406	0.453	0.371	0.696	0.733	0.701	0.892	0.9
HCC-366	0.15	0.217	0.132	0.154	0.112	0.648	0.561	0.648	0.584	0.594	0.9	1.01	1.11	1.12	0.99	0.89	0.998	1.1	1.1	1.13
HCC-827	0.458	0.424	0.449	0.409	0.383	0.44	0.425	0.416	0.464	0.37	1.04	0.947	1.23	0.983	0.939	0.192	0.192	0.193	0.18	0.22
HOP-62	0.351	0.404	0.384	0.412	0.354	0.756	0.792	0.719	0.675	0.543	0.602	0.816	0.628	0.754	0.985	0.939	1.09	1.06	0.997	1.01
LC-2-ad	0.465	0.396	0.465	0.444	0.377	0.616	0.607	0.577	0.558	0.57	0.98	1.02	0.973	1.05	0.878	0.913	0.915	0.94	0.904	1.05
LCLC-97TM1	0.217	0.235	0.251	0.358	0.198	0.441	0.409	0.435	0.428	0.461	0.77	0.522	0.884	0.71	0.301	1.13	1.12	0.716	–	0.791
LOU-NH91	0.638	0.693	0.702	0.737	0.592	0.855	0.942	0.771	0.672	0.698	0.509	0.49	0.48	0.455	0.568	0.72	0.759	0.618	0.734	0.631
LU99A	0.283	0.266	0.282	0.314	0.231	0.846	0.838	0.856	0.813	0.904	1.08	1.03	0.798	1.04	1.01	0.964	0.93	0.801	0.96	0.83
LXF-289	0.212	0.203	0.224	0.22	0.171	0.533	0.563	0.541	0.517	0.439	1.02	0.886	1.05	0.97	0.973	0.93	0.881	0.937	0.946	0.945
NCI-H23	0.364	0.341	0.427	0.376	0.341	0.757	0.884	0.904	0.678	0.828	0.922	0.977	0.962	0.834	0.826	1.09	1.07	0.953	0.772	1.01
NCI-H322M	0.496	0.558	0.506	0.54	0.477	0.825	0.768	0.789	0.809	0.633	1.37	1.18	1.17	1.25	1.3	0.451	0.621	0.631	0.646	0.633
NCI-H460	0.459	0.513	0.496	0.57	0.393	0.599	0.536	0.614	0.532	0.313	1.13	1.04	1.22	1.05	1.34	0.923	0.768	1.05	0.94	1.1
NCI-H520	0.429	0.419	0.471	0.461	0.363	0.602	0.484	0.59	0.626	0.346	0.53	0.612	0.496	0.459	0.31	0.754	0.758	0.828	0.793	0.721
NCI-H596	0.935	0.978	0.864	0.887	0.954	0.786	0.61	0.78	0.709	0.677	0.919	0.808	–	0.994	0.983	1.04	1.01	–	1.02	0.847
NCI-H647	0.372	0.309	–	0.248	0.306	0.449	0.597	–	0.553	0.238	0.977	0.846	0.844	0.912	0.958	1.13	1.01	1.23	1.08	1.04
NCI-H650	0.759	0.824	0.751	0.779	0.698	0.489	0.483	0.466	0.491	0.476	0.903	0.771	0.525	0.66	0.807	0.633	1.03	0.744	0.728	0.802

Cell Line	relative viability ([1]; first compound 0.08 µM)	relative viability ([1]; first compound 0.253 µM)	relative viability ([1]; first compound 0.8 µM)	relative viability ([1]; first compound 2.53 µM)	relative viability ([1]; first compound 8 µM)	relative viability ([2]; first compound 0.08 µM)	relative viability ([2]; first compound 0.253 µM)	relative viability ([2]; first compound 0.8 µM)	relative viability ([2]; first compound 2.53 µM)	relative viability ([2]; first compound 8 µM)	relative viability ([3]; first compound 0.08 µM)	relative viability ([3]; first compound 0.253 µM)	relative viability ([3]; first compound 0.8 µM)	relative viability ([3]; first compound 2.53 µM)	relative viability ([3]; first compound 8 µM)	relative viability ([4]; first compound 0.08 µM)	relative viability ([4]; first compound 0.253 µM)	relative viability ([4]; first compound 0.8 µM)	relative viability ([4]; first compound 2.53 µM)	relative viability ([4]; first compound 8 µM)
NCI-H661	0.354	0.373	0.355	0.358	0.375	0.286	0.295	0.28	0.245	0.291	0.637	0.858	0.723	0.682	0.638	0.446	0.462	0.578	0.473	0.403
NCI-H727	0.655	0.562	0.589	0.58	0.568	0.675	0.712	0.56	0.63	0.387	0.738	0.698	0.83	0.797	1.07	0.632	0.809	0.742	0.754	0.863
NCI-H838	0.268	0.28	0.297	0.301	0.248	0.559	0.578	0.549	0.562	0.318	0.893	0.923	0.697	0.663	0.747	0.976	1.02	0.901	0.822	0.966
NCI-H1355	0.483	0.606	0.506	–	0.546	0.432	0.501	0.441	–	0.398	1.2	1.15	–	1.1	1.25	1.03	0.939	–	0.955	0.823
NCI-H1437	0.413	0.396	0.396	0.398	0.347	0.337	0.272	0.25	0.341	0.297	0.537	0.581	0.63	0.458	0.378	0.883	0.817	0.8	0.677	0.499
NCI-H1650	0.399	0.489	0.363	0.382	0.264	0.412	0.367	0.419	0.366	0.326	0.207	0.238	0.23	0.205	0.186	0.637	0.704	0.544	0.677	0.78
NCI-H1651	0.717	0.58	0.753	0.72	0.762	0.342	0.308	0.373	0.319	0.297	0.834	0.826	1.02	0.893	0.856	0.744	0.883	0.741	0.826	0.706
NCI-H1666	0.563	0.548	0.593	0.575	0.595	0.609	0.527	0.539	0.584	0.544	0.839	0.843	0.705	0.701	0.537	0.617	0.519	0.485	0.519	0.456
NCI-H1734	0.299	0.252	0.264	–	0.235	0.441	0.423	0.369	–	0.376	0.743	0.956	0.861	0.838	0.951	0.947	0.886	0.915	0.973	1.02
NCI-H1755	0.583	0.687	0.612	0.631	0.563	0.684	0.665	0.698	0.613	0.662	0.918	1.01	0.907	1.02	0.998	0.935	1.01	0.945	1.02	0.984
NCI-H1915	0.472	0.467	0.499	–	0.359	0.373	0.354	0.342	–	0.332	0.933	0.922	0.95	0.884	1.01	0.956	0.933	0.931	0.943	1.04
NCI-H1975	0.925	0.85	0.719	0.882	0.487	0.411	0.411	0.409	0.419	0.384	0.369	0.318	0.34	0.4	0.307	0.801	0.788	0.831	0.759	0.697
NCI-H1993	0.525	0.619	0.645	0.602	0.54	0.488	0.493	0.516	0.506	0.498	1.12	0.828	1.06	1.25	0.894	0.848	0.885	0.744	0.929	0.719
NCI-H2009	0.782	0.781	0.751	0.77	0.662	0.519	0.501	0.5	0.486	0.412	1.02	0.934	0.948	0.826	0.882	1.02	0.878	0.888	0.735	0.924
NCI-H2023	0.329	0.363	0.366	0.349	0.291	0.459	0.387	0.411	0.472	0.378	1.07	0.924	0.664	0.763	0.679	1.03	0.735	0.407	0.468	0.598
NCI-H2085	0.903	0.79	0.705	0.835	0.774	0.736	0.711	0.713	0.771	0.675	0.998	1.02	1.01	0.963	1.06	0.633	0.747	0.607	0.723	0.824
